Experimental data as given in ChEMBL document CHEMBL2074084, “Cloning and functional characterization of a novel rat organic anion transporter mediating basolateral uptake of methotrexate in the kidney” (J Biol Chem, 1996).

Experiments:
Format in all cases: functional, cell-based
[1] = target: T1, Solute carrier organic anion transporter family member 1A3 (Rattus norvegicus, UniProt P70502); assay: TP_TRANSPORTER: inhibition of MTX uptake (MTX: 0.026 uM, Folic acid: 100 uM) in OAT-K1-expressing LLC-PK1 cells; details: pig, llc-pk1, 100 µM
T1 sequence (P70502 whole entry): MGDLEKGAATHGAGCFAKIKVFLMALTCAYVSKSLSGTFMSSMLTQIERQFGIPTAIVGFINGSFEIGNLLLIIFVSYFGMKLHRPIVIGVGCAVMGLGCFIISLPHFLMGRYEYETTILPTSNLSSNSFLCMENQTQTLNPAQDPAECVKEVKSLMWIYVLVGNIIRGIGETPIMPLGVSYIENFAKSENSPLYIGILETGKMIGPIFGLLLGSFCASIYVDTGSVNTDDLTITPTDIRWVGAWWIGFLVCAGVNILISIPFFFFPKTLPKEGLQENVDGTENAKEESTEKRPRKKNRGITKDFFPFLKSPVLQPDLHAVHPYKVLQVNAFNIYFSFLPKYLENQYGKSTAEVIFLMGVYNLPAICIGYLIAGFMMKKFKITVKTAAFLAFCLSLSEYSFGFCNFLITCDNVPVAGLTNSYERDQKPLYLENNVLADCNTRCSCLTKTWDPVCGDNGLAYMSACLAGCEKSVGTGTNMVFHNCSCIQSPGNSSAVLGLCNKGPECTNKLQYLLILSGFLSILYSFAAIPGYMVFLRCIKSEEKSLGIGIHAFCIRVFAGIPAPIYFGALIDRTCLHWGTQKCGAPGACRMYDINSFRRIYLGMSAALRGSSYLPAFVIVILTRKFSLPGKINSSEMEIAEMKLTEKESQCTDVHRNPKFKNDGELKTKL

[2] = target: T1, Solute carrier organic anion transporter family member 1A3; assay: TP_TRANSPORTER: inhibition of MTX uptake (MTX: 0.026 uM, BSP: 100 uM) in OAT-K1-expressing LLC-PK1 cells; details: pig, llc-pk1, 100 µM
[3] = substrate: CN(Cc1cnc2nc(N)nc(N)c2n1)c1ccc(C(=O)N[C@@H](CCC(=O)O)C(=O)O)cc1; assay: TP_TRANSPORTER: uptake in OAT-K1-expressing LLC-PK1 cells

Q: `Nc1nc2ncc(CNc3ccc(C(=O)N[C@@H](CCC(=O)O)C(=O)O)cc3)nc2c(=O)[nH]1` [FOLIC ACID] was tested. Which Activity [1] did it give?
A: inhibitor [(at a rough estimate) 35 % of control]

Q: `O=C1OC(c2ccc(O)c(S(=O)(=O)[O-])c2)(c2ccc(O)c(S(=O)(=O)[O-])c2)c2c(Br)c(Br)c(Br)c(Br)c21.[Na+].[Na+]` [SULFOBROMOPHTHALEIN SODIUM] was tested. Which Activity [2] did it give?
A: inhibitor [(at a rough estimate) 35 % of control]

B1: Solute carrier organic anion transporter family member 1A3 (Rattus norvegicus) (protein)
chain: T1 sequence (P70502 whole entry)
Q: With B1 as the molecule, how does the Km [3] read?
A: 1 µM
